Laboratory results published in patent US11767323B2, “Tricyclic pyridone compounds as JAK2 V617F inhibitors” (Incyte Corporation, priority 2020, dated 2023).

Legend:
[1] = biological target: catalytic domain (JH1, amino acids 808-1132) of human JAK2 (Homo sapiens (Human), UniProt O60674); assay: JAK2 HTRF Enzyme Activity Assay; type: biochemical; conditions: JAK2 0.015 nM, ATP (30 μM or 1 mM), 60 minutes at 25° C.
Experimental: Example D. JAK2 HTRF Enzyme Activity Assay
JAK2 enzyme activity assays utilize catalytic domain (JH1, amino acids 808-1132) of human JAK2 expressed as N-terminal His-tagged protein in a baculovirus expression system (BPS Bioscience, Catalog #40450). The assays was conducted in black 384-well polystyrene plates in a final reaction volume of 20 μL. JAK2 (0.015 nM) was incubated with compounds (100 nL serially diluted in DMSO) in the presence of ATP (30 μM or 1 mM) and 500 nM Biotin-labeled EQEDEPEGDYFEWLE (SEQ ID NO.: 1) peptide (BioSource International, custom synthesis) in assay buffer (50 mM Tris, pH=7.5, 10 mM MgCl2, 0.01% Brij-35, 0.1% BSA, 1 mM EGTA, 5% Glycerol and 5 mM DTT) for 60 minutes at 25° C. The reactions were stopped by the addition of 10 μL of detection buffer (50 mM Tris, pH 7.8, 0.5 mg/mL BSA, 150 mM NaCl), supplemented with EDTA, LANCE Eu-W1024 anti-phosphotyrosine (PY20), (PerkinElmer, Catalog #AD0067) and Streptavidin SureLight APC (PerkinElmer Catalog #CR130-100), for a final concentration of 15 mM, 1.5 nM and 75 nM, respectively. HTRF signals were read after 30 minutes incubation at room temperature on a PHERAstar FS plate reader (BMG LAB TECH). Data was analyzed with IDBS XLfit and GraphPad Prism 5.0 software using a four parameter dose response curve to determine IC50 for each compound.

[2] = biological target: pseudo-kinase domain (JH2, amino-acids 536-812) of human Wild Type JAK2 (Homo sapiens (Human), UniProt O60674, F794H/W659A/W777A); assay: JAK2 LanthaScreen JH2-WT Binding Assay; conditions: JAK2 JH2-WT 0.145 nM, 50 nM tracer, 1 hour at 25° C.; read-out: JH2 BIND WT IC50
pseudo-kinase domain (JH2, amino-acids 536-812) of human Wild Type JAK2, sequence (O60674 536-812 W659A/W777A/F794H): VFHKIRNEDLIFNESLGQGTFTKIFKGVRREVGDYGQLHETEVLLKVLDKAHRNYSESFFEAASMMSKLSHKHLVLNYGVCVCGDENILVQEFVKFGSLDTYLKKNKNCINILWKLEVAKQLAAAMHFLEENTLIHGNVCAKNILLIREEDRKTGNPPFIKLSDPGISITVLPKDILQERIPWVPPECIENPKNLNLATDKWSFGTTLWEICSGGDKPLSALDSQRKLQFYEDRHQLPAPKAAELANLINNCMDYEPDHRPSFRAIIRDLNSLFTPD
Experimental: Example B. JAK2 LanthaScreen JH2-WT Binding Assay
(§1) JAK2 JH2-WT binding assay utilizes pseudo-kinase domain (JH2, amino-acids 536-812 with 3 surface mutations W659A, W777A, F794H) of human Wild Type JAK2 expressed as C-terminal His-Avi-tagged, biotinylated protein in a baculovirus expression system (BPS Bioscience, Catalog #79463). The assay was conducted in black 384-well polystyrene plates in a final reaction volume of 20 μL. JAK2 JH2-WT (0.145 nM) was incubated with compounds (100 nL serially diluted in DMSO) in the presence of 50 nM Fluorescent JAK2-JH2 Tracer (MedChem Express Catalog #HY-102055) and 0.25 nM Streptavidin-Tb cryptate (Cisbio Part #610SATLB) in assay buffer (50 mM Tris, pH=7.5, 10 mM MgCl2, 0.01% Brij-35, 0.1% BSA, 1 mM EGTA, 5% Glycerol and 5 mM DTT). Non-specific binding was accessed in the presence of 2 mM ATP. After incubation for 1 hour at 25° C., LanthaScreen signals were read on a PHERAstar FS plate reader (BMG LAB TECH). Data was analyzed with IDBS XLfit and GraphPad Prism 5.0 software using a four parameter dose response curve to determine IC50 for each compound.

[3] = biological target: pseudo-kinase domain (JH2, amino-acids 536-812) of human V617F mutant JAK2 (Homo sapiens (Human), UniProt O60674, F794H/V617F/W659A/W777A); assay: JAK2 LanthaScreen JH2-V617F Binding Assay; conditions: JAK2 JH2-V617F 0.26 nM, 50 nM tracer, 1 hour at 25° C.; read-out: JH2 BIND V617F IC50
pseudo-kinase domain (JH2, amino-acids 536-812) of human V617F mutant JAK2, sequence (O60674 536-812 V617F/W659A/W777A/F794H): as the sequence (O60674 536-812 W659A/W777A/F794H) above, with V82F counted along it
Experimental: Example C. JAK2 LanthaScreen JH2-V617F Binding Assay
as §1, with “JH2-V617F” for “JH2-WT”, “V617F mutant” for “Wild Type”, “#79498).” for “#79463).”, “JH2-V617F (0.26” for “JH2-WT (0.145”, “LABTECH).” for “LAB TECH).”

[4] = biological target: catalytic domain (JH1, amino acids 826-1132) of human JAK2 (Homo sapiens (Human), UniProt O60674); assay: JAK2 LanthaScreen JH1 Binding Assay; conditions: JAK2 JH1 1.5 nM, 50 nM tracer, 2 hours at 25° C.; read-out: JH1 BIND IC50
catalytic domain (JH1, amino acids 826-1132) of human JAK2, sequence (O60674 826-1132): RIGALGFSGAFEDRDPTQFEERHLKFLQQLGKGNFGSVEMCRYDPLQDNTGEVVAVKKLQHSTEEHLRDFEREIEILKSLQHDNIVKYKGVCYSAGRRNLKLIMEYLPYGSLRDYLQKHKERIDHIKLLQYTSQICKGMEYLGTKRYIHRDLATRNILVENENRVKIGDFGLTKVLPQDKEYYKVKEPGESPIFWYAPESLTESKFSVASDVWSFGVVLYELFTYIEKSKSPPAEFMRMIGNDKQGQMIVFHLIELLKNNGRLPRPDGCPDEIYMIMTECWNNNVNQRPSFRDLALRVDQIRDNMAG
Experimental: Example A. JAK2 LanthaScreen JH1 Binding Assay
JAK2 JH1 binding assay utilizes catalytic domain (JH1, amino acids 826-1132) of human JAK2 expressed as N-terminal FLAG-tagged, biotinylated protein in a baculovirus expression system (Carna Biosciences, Product #08-445-20N). The assay was conducted in black 384-well polystyrene plates in a final reaction volume of 20 μL. JAK2 JH1 (1.5 nM) was incubated with compounds (100 nL serially diluted in DMSO) in the presence of 50 nM Fluorescent JAK2-JH1 Tracer and 0.5 nM Streptavidin-Tb cryptate (Cisbio Part #610SATLB) in assay buffer (50 mM Tris, pH=7.5, 10 mM MgCl2, 0.01% Brij-35, 0.1% BSA, 1 mM EGTA, 5% Glycerol and 5 mM DTT). Non-specific binding was accessed in the presence of 2 mM ATP. After incubation for 2 hours at 25° C., LanthaScreen signals were read on a PHERAstar FS plate reader (BMG LABTECH). Data was analyzed with IDBS XLfit and GraphPad Prism 5.0 software using a four parameter dose response curve to determine IC50 for each compound.

catalytic domain (JH1, amino acids 808-1132) of human JAK2, sequence (O60674 808-1132): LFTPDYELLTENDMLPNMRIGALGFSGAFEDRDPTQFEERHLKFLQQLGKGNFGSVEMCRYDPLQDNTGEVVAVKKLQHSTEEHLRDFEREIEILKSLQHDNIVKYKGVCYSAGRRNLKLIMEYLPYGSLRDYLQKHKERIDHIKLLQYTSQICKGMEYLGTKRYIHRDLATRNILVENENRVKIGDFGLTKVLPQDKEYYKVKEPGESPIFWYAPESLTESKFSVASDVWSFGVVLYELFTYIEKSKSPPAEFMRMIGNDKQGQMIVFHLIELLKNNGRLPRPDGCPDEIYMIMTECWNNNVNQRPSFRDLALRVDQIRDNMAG

Row | SMILES | IC50 [1] [nM] | IC50 [2] [nM] | IC50 [3] [nM] | IC50 [4] [nM]
1 | CS(=O)(=O)C1CCN(Cc2ccc(-c3cc4c(ncc5[nH]c(=O)c(-c6nnn[nH]6)cc54)[nH]3)cc2)CC1 [Example 5, 2-(4-((4-(Methylsulfonyl)piperidin-1-yl)methyl)phenyl)-8-(1H-tetrazol-5-yl)-3,6-dihydro-7H-pyrrolo[3,2-f][1,7]naphthyridin-7-one] | 1000 to 10000 | 500 to 1000 | 1000 to 10000 | > 10000
2 | Cc1ccncc1-c1cc2c3c(-c4ccc(C(=O)N(C)C)cc4)c(-c4cnn(C)c4)[nH]c3ncc2n(C)c1=O [Example 36, N,N-dimethyl-4-(6-methyl-2-(1-methyl-1H-pyrazol-4-yl)-8-(4-methylpyridin-3-yl)-7-oxo-6,7-dihydro-3H-pyrrolo[3,2-f][1,7]naphthyridin-1-yl)benzamide] | ≤ 100 | ≤ 100 | ≤ 100 | ≤ 100
3 | Cc1c(-c2ccc(Cl)cc2)c(=O)n(C)c2cnc3[nH]c(-c4ccc(CN5CCC(S(C)(=O)=O)CC5)cc4)cc3c12 [Example 10, 8-(4-Chlorophenyl)-6,9-dimethyl-2-(4-((4-(methylsulfonyl)piperidin-1-yl)methyl)phenyl)-3,6-dihydro-7H-pyrrolo[3,2-f][1,7]naphthyridin-7-one] | 100 to 500 | ≤ 100 | ≤ 100 | 100 to 500
4 | Cc1cc(-c2c(-c3ccccc3)c3c4cc(-c5cnn(C)c5)[nH]c4ncc3n(C)c2=O)on1 [Example 23, 6-methyl-2-(1-methyl-1H-pyrazol-4-yl)-8-(3-methylisoxazol-5-yl)-9-phenyl-3,6-dihydro-7H-pyrrolo[3,2-f][1,7]naphthyridin-7-one] | 100 to 500 | ≤ 100 | ≤ 100 | 100 to 500
5 | CN(C)C(=O)c1ccc(-c2c(-c3cnn(C)c3)[nH]c3ncc4c(cc(Nc5cccc(-c6nnn[nH]6)c5)c(=O)n4C)c23)cc1 [Example 34, 4-(8-((3-(1H-tetrazol-5-yl)phenyl)amino)-6-methyl-2-(1-methyl-1H-pyrazol-4-yl)-7-oxo-6,7-dihydro-3H-pyrrolo[3,2-f][1,7]naphthyridin-1-yl)-N,N-dimethylbenzamide] | 100 to 500 | ≤ 100 | ≤ 100 | 100 to 500
6 | Cc1cc(-c2c(-c3ccc(C(=O)NCCO)cc3)c3c4cc(-c5cnn(C)c5)[nH]c4ncc3n(C)c2=O)on1 [Example 25, N-(2-hydroxyethyl)-4-(6-methyl-2-(1-methyl-1H-pyrazol-4-yl)-8-(3-methylisoxazol-5-yl)-7-oxo-6,7-dihydro-3H-pyrrolo[3,2-f][1,7]naphthyridin-9-yl)benzamide] | 100 to 500 | ≤ 100 | ≤ 100 | 500 to 1000
7 | COC1CCC(c2cc(=O)n(C)c3cnc4[nH]c(-c5cnn(C)c5)cc4c23)CC1 (stereo not drawn) [Example 24, 9-(4-methoxycyclohexyl)-6-methyl-2-(1-methyl-1H-pyrazol-4-yl)-3,6-dihydro-7H-pyrrolo[3,2-f][1,7]naphthyridin-7-one] | ≤ 100 | ≤ 100 | ≤ 100 | ≤ 100
8 | Cc1c(-c2ccc([N+](=O)[O-])cc2)c(=O)[nH]c2cnc3[nH]c(-c4ccc(CN5CCC(S(C)(=O)=O)CC5)cc4)cc3c12 [Example 18, 9-Methyl-2-(4-((4-(methylsulfonyl)piperidin-1-yl)methyl)phenyl)-8-(4-nitrophenyl)-3,6-dihydro-7H-pyrrolo[3,2-f][1,7]naphthyridin-7-one] | 1000 to 10000 | 500 to 1000 | 1000 to 10000 | 1000 to 10000
9 | CCn1c(=O)c(-c2ccc(C(=O)O)cc2)cc2c3cc(-c4ccc(CN5CCC(S(C)(=O)=O)CC5)cc4)[nH]c3ncc21 [Example 15, 4-(6-Ethyl-2-(4-((4-(methylsulfonyl)piperidin-1-yl)methyl)phenyl)-7-oxo-6,7-dihydro-3H-pyrrolo[3,2-f][1,7]naphthyridin-8-yl)benzoic acid] | 1000 to 10000 | 500 to 1000 | 1000 to 10000 | 1000 to 10000
10 | CC(=O)N1CC[C@H](c2cc3c4c(-c5ccccc5)c(-c5ccc(CN6CCC(S(C)(=O)=O)CC6)cc5)[nH]c4ncc3n(C)c2=O)C1 [Example 37, (R)-8-(1-acetylpyrrolidin-3-yl)-6-methyl-2-(4-((4-(methylsulfonyl)piperidin-1-yl)methyl)phenyl)-1-phenyl-3,6-dihydro-7/7-pyrrolo[3,2-f][1,7]naphthyridin-7-one] | ≤ 100 | ≤ 100 | ≤ 100 | ≤ 100
11 | CS(=O)(=O)C1CCN(Cc2ccc(-c3cc4c(ncc5[nH]c(=O)c(-c6ccccc6)cc54)[nH]3)cc2)CC1 [Example 1, 2-(4-((4-(Methylsulfonyl)piperidin-1-yl)methyl)phenyl)-8-phenyl-3,6-dihydro-7H-pyrrolo[3,2-f][1,7]naphthyridin-7-one] | > 10000 | 1000 to 10000 | 1000 to 10000 | 1000 to 10000
12 | Cc1cc(-c2c(-c3ccc(NC4CCOCC4)cc3)c3c4cc(-c5cnn(C)c5)[nH]c4ncc3n(C)c2=O)on1 [Example 30, 6-Methyl-2-(1-methyl-1H-pyrazol-4-yl)-8-(3-methylisoxazol-5-yl)-9-(4-((tetrahydro-2H-pyran-4-yl)amino)phenyl)-3,6-dihydro-7H-pyrrolo[3,2-f][1,7]naphthyridin-7-one] | 500 to 1000 | ≤ 100 | ≤ 100 | 500 to 1000
